Laboratory results published in ChEMBL document CHEMBL3774317, “Design and synthesis of novel tamoxifen analogues that avoid CYP2D6 metabolism” (Eur J Med Chem, 2016).

How the values were obtained:
[1] = molecular target: Estrogen receptor beta (Homo sapiens, UniProt Q92731)
Description: Displacement of [3H]-E2 from human ER-beta incubated for 16 to 20 hrs by liquid scintillation counting analysis

[2] = tested on: MCF7; test: Antiproliferative activity against human MCF7 cells after 72 hrs by MTT assay
[3] = molecular target: T1, Estrogen receptor (Homo sapiens, UniProt P03372)
T1 sequence (P03372 whole entry): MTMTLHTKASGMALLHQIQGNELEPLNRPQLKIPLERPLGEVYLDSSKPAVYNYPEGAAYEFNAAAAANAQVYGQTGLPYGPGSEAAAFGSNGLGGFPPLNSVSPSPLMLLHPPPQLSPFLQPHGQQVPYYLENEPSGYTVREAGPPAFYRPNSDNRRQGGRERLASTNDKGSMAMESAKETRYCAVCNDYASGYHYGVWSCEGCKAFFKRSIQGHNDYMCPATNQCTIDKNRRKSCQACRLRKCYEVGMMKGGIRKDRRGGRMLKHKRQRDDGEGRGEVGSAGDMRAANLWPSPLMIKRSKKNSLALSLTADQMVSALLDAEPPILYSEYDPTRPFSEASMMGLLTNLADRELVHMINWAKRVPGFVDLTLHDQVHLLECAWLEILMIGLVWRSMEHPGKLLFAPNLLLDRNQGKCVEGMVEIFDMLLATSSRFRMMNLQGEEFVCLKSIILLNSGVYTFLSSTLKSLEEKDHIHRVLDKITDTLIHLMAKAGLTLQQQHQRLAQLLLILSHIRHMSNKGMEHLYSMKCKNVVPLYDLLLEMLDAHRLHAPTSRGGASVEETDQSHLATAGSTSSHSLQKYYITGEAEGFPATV
Description: Displacement of [3H]-E2 from human ER-alpha incubated for 16 to 20 hrs by liquid scintillation counting analysis

[4] = Cytotoxicity against human SNB75 cells assessed as growth inhibition after 48 hrs by SRB assay; assay type: functional; conditions: SNB-75, 48 h
[5] = Cytotoxicity against human UO31 cells assessed as growth inhibition after 48 hrs by SRB assay; assay type: functional; conditions: UO-31, 48 h
[6] = tested on: MDA-MB-435; test: Cytotoxicity against human MDA-MB-435 cells assessed as growth inhibition after 48 hrs by SRB assay; assay type: functional; conditions: MDA-MB-435, 48 h
[7] = Cytotoxicity against human MOLT4 cells assessed as growth inhibition after 48 hrs by SRB assay; assay type: functional; conditions: MOLT-4, 48 h
[8] = tested on: MDA-MB-468; test: Cytotoxicity against human MDA-MB-468 cells assessed as growth inhibition after 48 hrs by SRB assay; assay type: functional; conditions: MDA-MB-468, 48 h
[9] = tested on: EKVX; test: Cytotoxicity against human EKVX cells assessed as growth inhibition after 48 hrs by SRB assay; assay type: functional
[10] = Cytotoxicity against human HCT15 cells assessed as growth inhibition after 48 hrs by SRB assay; assay type: functional; conditions: HCT-15, 48 h
[11] = tested on: MCF7; test: Cytotoxicity against human MCF7 cells assessed as growth inhibition after 48 hrs by SRB assay; assay type: functional; conditions: MCF7, 48 h
[12] = Cytotoxicity against human SKOV3 cells assessed as growth inhibition after 48 hrs by SRB assay; assay type: functional; conditions: SK-OV-3, 48 h

Chain of Estrogen receptor beta (Q92731 whole entry): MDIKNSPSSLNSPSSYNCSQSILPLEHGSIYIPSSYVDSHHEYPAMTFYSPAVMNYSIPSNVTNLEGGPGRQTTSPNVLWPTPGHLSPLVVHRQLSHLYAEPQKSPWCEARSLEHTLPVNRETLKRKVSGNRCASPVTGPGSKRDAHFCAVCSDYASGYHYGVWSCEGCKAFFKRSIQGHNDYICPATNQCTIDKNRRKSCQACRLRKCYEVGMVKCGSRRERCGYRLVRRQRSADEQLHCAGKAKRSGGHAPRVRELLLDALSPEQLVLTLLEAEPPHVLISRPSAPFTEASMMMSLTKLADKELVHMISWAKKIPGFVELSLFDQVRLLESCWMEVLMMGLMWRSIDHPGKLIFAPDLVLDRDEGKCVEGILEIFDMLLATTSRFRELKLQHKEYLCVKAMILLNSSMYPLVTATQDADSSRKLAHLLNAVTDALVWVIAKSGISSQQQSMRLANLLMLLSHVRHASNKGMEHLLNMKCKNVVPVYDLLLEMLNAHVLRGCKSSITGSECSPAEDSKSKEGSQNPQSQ

Row | Structure (SMILES) | IC50 ([2]; mcf7) [nM] | IC50 [3] [nM] | further results
1 | CC(=O)Oc1ccc(/C(=C(/C)c2ccccc2)c2ccc(OCCN3CCCC3)cc2)cc1 | 2600 | 7.7 | IC50 [1]: 260 nM
2 | C/C(=C(/c1ccc(O)cc1)c1ccc(OCCN(C)C)cc1)c1ccccc1 | 1480 | 1.3 | –
3 | CCCC(=O)Oc1ccc(/C(=C(/C)c2ccccc2)c2ccc(OCCN(C)C)cc2)cc1 | 3170 | 34.5 | –
4 | CCCC(=O)Oc1ccc(/C(=C(/C)c2ccccc2)c2ccc(OCCN3CCCCC3)cc2)cc1 | 2420 | 33.3 | –
5 | CCCCCCCCCC(=O)Oc1ccc(/C(=C(/C)c2ccccc2)c2ccc(OCCN3CCCCC3)cc2)cc1 | 1520 | 81 | –
6 | C/C(=C(/c1ccc(O)cc1)c1ccc(OCCN2CCCCC2)cc1)c1ccccc1 | 1240 | 0.4 | –
7 | CCCCCCCCCC(=O)Oc1ccc(/C(=C(/C)c2ccccc2)c2ccc(OCCN(C)C)cc2)cc1 | 1120 | 31.9 | –
8 | CC/C(=C(\c1ccccc1)c1ccc(OCCN(C)C)cc1)c1ccccc1 [TAMOXIFEN] | – | – | GI50 [4]: 5010 nM; GI50 [5]: 6300 nM; GI50 [6]: 3160 nM; IC50 ([2]; Homo sapiens, MCF7, 72 h): 4400 nM; GI50 [7]: 2500 nM; GI50 [8]: 2500 nM; GI50 [9]: 6300 nM; GI50 [10]: 3160 nM; GI50 [11]: 1580 nM; GI50 [12]: 10000 nM
9 | CC(=O)Oc1ccc(/C(=C(\C)c2ccccc2)c2ccc(OCCN(C)C)cc2)cc1 | 2740 | 22 | –
10 | CC(=O)Oc1ccc(/C(=C(/C)c2ccccc2)c2ccc(OCCN3CCCCC3)cc2)cc1 | 2460 | 12.4 | –
11 | CCC(=C(c1ccc(O)cc1)c1ccc(OCCN(C)C)cc1)c1ccccc1 | – | – | IC50 ([2]; Homo sapiens, MCF7, 72 h): 2790 nM
12 | CCCC(=O)Oc1ccc(/C(=C(/C)c2ccccc2)c2ccc(OCCN3CCCC3)cc2)cc1 | 1200 | 27.1 | –
